# Patent US20060094002A1 (priority 2002, published 2006)
# Tested on: Aspergillus (A. nidulans, A. niger, A. awamori)
# Test: Effect of known antifungal drugs on [Ca2+]c in different Aspergillus species
# Format: cell-based
# Details: FIGS. 22a, b
# Excerpt: Procedure: • The fungus can be either transformed with the recombinant aequorin gene or can be injected with the active aequorin. • Then this fungus can be subjected to a range of the antifungal drugs, profiles of which have already been created. • Obtained profiles can be compared with the library of the fingerprints and this way the fungal species can be identified.
row,SMILES,[Ca^2+]c response in 3 different species of Aspergillus
1,C[C@@H]1[C@H](O)[C@@H](C)/C=C/C=C/C=C/C=C/C=C/C=C/C=C/[C@H](O[C@@H]2O[C@H](C)[C@@H](O)[C@H](N)[C@@H]2O)C[C@@H]2O[C@](O)(C[C@@H](O)C[C@@H](O)[C@H](O)CC[C@@H](O)C[C@@H](O)CC(=O)O[C@H]1C)C[C@H](O)[C@H]2C(=O)O [amphotericin B],caused a different [Ca^2+]c response
2,CCCCC[C@@H](O)[C@H]1C(=O)O[C@H](C)[C@@H](O)/C=C/C=C/C=C/C=C/C=C(\C)[C@@H](O)C[C@H](O)C[C@H](O)C[C@H](O)C[C@H](O)C[C@H](O)C[C@@H]1O [filipin],caused a different [Ca^2+]c response
3,CC(=O)N1CCN(c2ccc(OCC3COC(Cn4ccnc4)(c4ccc(Cl)cc4Cl)O3)cc2)CC1 (centres unmarked) [ketoconazole],caused a different [Ca^2+]c response
4,Clc1ccccc1C(c1ccccc1)(c1ccccc1)n1ccnc1 [clotrimazole],caused a different [Ca^2+]c response
5,C[C@@H]1[C@H](O)[C@@H](C)/C=C/C=C/CC/C=C/C=C/C=C/C=C/C(O[C@H]2O[C@H](C)[C@@H](O)[C@H](N)[C@@H]2O)CC2O[C@](O)(CC(O)C(O)CCC(O)CC(O)CC(O)CC(=O)O[C@H]1C)CC(O)C2C(=O)O (some centres unmarked) [nystatin],caused a different [Ca^2+]c response
